Experimental data as given in US20060069132A1, “Azolecarboxamide herbicides” (priority 2004, published 2006).

Assays:
[1] = system: common (oilseed) sunflower; experiment: Test C pre-/postemergence herbicide test; type: in vivo, Helianthus annuus; conditions: preemergence
How it was run: (§1)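 Pre/post spray; non-phytotoxic solvent + surfactant. Post-timing 1–4 leaves, 2–18 cm. Read-out: visual % control vs untreated, day 12–14, greenhouse.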

large crabgrass = experiment: Test C pre-/postemergence herbicide test; type: in vivo, Digitaria sanguinalis; conditions: preemergence
How it was run: as §1

pigweed = experiment: Test C pre-/postemergence herbicide test; type: in vivo, Amaranthus retroflexus; conditions: preemergence
How it was run: as §1

rice = experiment: Test B pre-/postemergence herbicide test; type: in vivo, Oryza sativa; conditions: 0 = no effect, 100 = complete control, preemergence; for Rice plant response rating (0 to 100 scale): 125 g ai/ha; for Plant response rating, Rice: 500 g ai/ha, visual rating
How it was run: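 Formulation: non-phytotoxic solvent mix with surfactant. Timing: preemergence on seed and postemergence on 2–18 cm plants, applied concurrently. Readout after 13–15 d greenhouse: visual 0–100 control rating against controls.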

velvetleaf = experiment: Test C pre-/postemergence herbicide test; type: in vivo, Abutilon theophrasti; conditions: preemergence
How it was run: as §1

cocklebur = experiment: Test C pre-/postemergence herbicide test; type: in vivo, Xanthium strumarium; conditions: for Plant response rating, Cocklebur: preemergence; for Cocklebur plant response rating: Preemergence, 500 g ai/ha, scale 0 to 100, 0 no effect, 100 complete control
How it was run: as §1

[2] = 500 g ai/ha, scale 0 to 100 (0 no effect, 100 complete control), visual, 12 to 14 days
[3] = 125 g ai/ha, scale 0 (no effect) to 100 (complete control), visual, 12 to 14 days

Compound | Plant response rating, Sunflower ([1]; 62 g ai/ha, scale 0 to 100) | Plant response rating, Sunflower ([1]; 250 g ai/ha, scale 0-100) | Plant response rating, Sunflower [1, 2] | Plant response rating, Crabgrass, Large (large crabgrass; 62 g ai/ha, scale 0 to 100) | Plant response rating, Crabgrass, Large (large crabgrass; [3]) | Plant response rating, Crabgrass, Large (large crabgrass; 250 g ai/ha, scale 0-100) | Plant response rating, Crabgrass, Large (large crabgrass; [2]) | Plant response rating, Pigweed (pigweed; 62 g ai/ha, scale 0 to 100) | Plant response rating, Pigweed (pigweed; [3]) | Plant response rating, Pigweed (pigweed; 250 g ai/ha, scale 0-100) | Plant response rating, Pigweed (pigweed; [2]) | Rice plant response rating (0 to 100 scale) (rice) | Plant response rating, Rice (rice) | Plant response rating, Velvetleaf (velvetleaf; 62 g ai/ha, scale 0 to 100) | Plant response rating, Velvetleaf (velvetleaf; 250 g ai/ha, scale 0-100) | Plant response rating, Velvetleaf (velvetleaf; [2]) | Plant response rating, Cocklebur (cocklebur; 62 g ai/ha, scale 0 to 100) | Plant response rating, Cocklebur (cocklebur; [3]) | Plant response rating, Cocklebur (cocklebur; 250 g ai/ha, scale 0-100) | Cocklebur plant response rating (cocklebur)
CCN1N=C(C(C)(C)C)CC1C(=O)Nc1cc(C(=O)N2CC=CC2)ccc1F (racemic) [Compound 310] | 0 | 0 | 0 | 30 | 70 | 100 | 100 | 100 | 100 | 100 | 100 | 40 | 80 | 0 | 10 | 100 | 0 | 0 | 5 | 30
CCn1nc(C(C)(C)C)cc1C(=O)Nc1ccc(OC)c(OC)c1 [Compound 298] | 0 | 0 | 0 | 85 | 95 | 100 | 100 | 100 | 100 | 100 | 100 | 40 | 60 | 60 | 100 | 100 | 0 | 0 | 0 | 0
CCn1nc(C2(C)CC2)cc1C(=O)Nc1cc(C(=O)N2CC=CC2)ccc1F [Compound 301] | 0 | 0 | 0 | 90 | 100 | 100 | 100 | 100 | 100 | 100 | 100 | 10 | 70 | 20 | 100 | 100 | 0 | 0 | 0 | 60
CCn1nc(C(C)(C)C)cc1C(=O)Nc1cc(C(=O)N(C)OC)ccc1F [Compound 244] | 0 | 15 | 20 | 100 | 100 | 100 | 100 | 100 | 100 | 100 | 100 | 60 | 80 | 15 | 100 | 100 | 0 | 0 | 0 | 0
